From US11524966B1 (Valo Early Discovery, Inc., priority 2017, dated 2022)

What follows are molecules tested against T1, USP28 (His-tagged USP28-FL-mammalian) (Homo sapiens, UniProt Q96RU2) (assay: Ubiquitin-Rhodamine 110 Assay for USP28 Activity, Example A-1(a)). Conditions: Ubiquitin-Rhodamine 110 assay, Example A-1(a); read-out: USP28 A-1(a) IC50 range.
T1 construct: Expression of USP28 (1-1077)-TEV-6*His (pTT5 vector); made in house; host or cells: Expi293f cells (pTT5 vector)
T1 sequence (Q96RU2 1-1077): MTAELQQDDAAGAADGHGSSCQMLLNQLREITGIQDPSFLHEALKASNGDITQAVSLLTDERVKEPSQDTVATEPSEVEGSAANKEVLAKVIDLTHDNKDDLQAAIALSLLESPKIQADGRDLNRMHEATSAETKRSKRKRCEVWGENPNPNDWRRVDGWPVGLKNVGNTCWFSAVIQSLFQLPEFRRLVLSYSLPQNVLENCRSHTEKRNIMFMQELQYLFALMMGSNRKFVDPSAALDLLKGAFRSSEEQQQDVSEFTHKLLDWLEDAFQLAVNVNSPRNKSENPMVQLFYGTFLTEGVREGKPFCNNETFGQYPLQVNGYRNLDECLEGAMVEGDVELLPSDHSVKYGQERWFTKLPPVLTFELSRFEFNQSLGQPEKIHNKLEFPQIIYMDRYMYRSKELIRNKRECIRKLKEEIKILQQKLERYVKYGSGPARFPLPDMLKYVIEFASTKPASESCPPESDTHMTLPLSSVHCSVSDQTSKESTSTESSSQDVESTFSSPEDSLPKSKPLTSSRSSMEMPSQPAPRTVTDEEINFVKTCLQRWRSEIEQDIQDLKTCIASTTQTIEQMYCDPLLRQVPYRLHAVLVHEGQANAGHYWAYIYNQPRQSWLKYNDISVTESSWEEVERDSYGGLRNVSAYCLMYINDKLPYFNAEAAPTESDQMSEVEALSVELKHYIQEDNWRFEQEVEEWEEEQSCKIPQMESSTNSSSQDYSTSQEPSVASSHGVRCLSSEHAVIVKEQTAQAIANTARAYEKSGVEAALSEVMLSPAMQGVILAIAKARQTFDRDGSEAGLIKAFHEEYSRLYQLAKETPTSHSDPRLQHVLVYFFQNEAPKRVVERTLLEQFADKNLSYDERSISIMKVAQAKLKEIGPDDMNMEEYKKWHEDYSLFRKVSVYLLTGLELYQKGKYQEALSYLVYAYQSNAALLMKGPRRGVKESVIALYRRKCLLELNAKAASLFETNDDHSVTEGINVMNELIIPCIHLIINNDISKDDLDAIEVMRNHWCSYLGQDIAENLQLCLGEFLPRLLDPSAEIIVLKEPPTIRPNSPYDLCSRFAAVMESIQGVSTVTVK
Assay type: biochemical
Method in brief: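 Full-length His-tagged USP28 (1-1077, Expi293F-expressed; […]) was preincubated 30 min with compound (25 μM–1.3 nM, 10-point 3-fold) in 20 mM Tris-HCl pH 8.0, 3 mM BME, 0.03% BGG, 0.01% Triton X-100. Ub-Rh110 (25 nM) was then added for 45 min at room temperature, stopped with citric acid, and read by fluorescence (485/535 nm).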

Structure (SMILES) | IC50
CO[C@@H]1CCN(c2ccc3c(n2)CC[C@H](NC(=O)c2sc4nc(C)ccc4c2N)C3)C[C@H]1N (single isomer, unassigned) [Example 316] | 50 to 200 nM
COC[C@@]1(C)CN(c2ccc3c(n2)CC[C@H](NC(=O)c2sc4nc(C)ccc4c2N)C3)C[C@@H]1N [Example 341, 3-amino-N-[(6S)-2-[(3S,4R)-4-amino-3-(methoxymethyl)-3-methylpyrrolidin-1-yl]-5,6,7,8-tetrahydroquinolin-6-yl]-6-methylthieno[2,3-b]pyridine-2-carboxamide] | 50 to 200 nM
Cc1ccc2c(N)c(C(=O)N[C@H]3COc4nc(N5C[C@H](OC(C)C)[C@@H](N)C5)ccc4C3)sc2n1 [Example 287, 3-amino-N-[(3R)-7-[(3S,4S)-3-amino-4-(propan-2-yloxy)pyrrolidin-1-yl]-2H,3H,4H-pyrano[2,3-b]pyridin-3-yl]-6-methylthieno[2,3-b]pyridine-2-carboxamide] | 200 to 2000 nM
Cc1ccc2c(N)c(C(=O)N[C@H]3COc4cc(N5CCC6(CNC6)C5)ccc4C3)sc2n1 [Example 306, 3-amino-N-[(3R)-7-{2,6-diazaspiro[3.4]octan-6-yl}-3,4-dihydro-2H-1-benzopyran-3-yl]-6-methylthieno[2,3-b]pyridine-2-carboxamide] | 1 to 50 nM
COC[C@]1(C)CN(c2ccc3c(n2)CC[C@H](NC(=O)c2sc4nc(C)ccc4c2N)C3)C[C@H]1N [Example 344, 3-amino-N-[(6S)-2-[(3R,4S)-4-amino-3-(methoxymethyl)-3-methylpyrrolidin-1-yl]-5,6,7,8-tetrahydroquinolin-6-yl]-6-methylthieno[2,3-b]pyridine-2-carboxamide] | 50 to 200 nM
CCOC[C@H]1CN(c2ccc3c(c2)OC[C@H](NC(=O)c2sc4nc(C)ccc4c2N)C3)C[C@H]1N [Example 314, 3-amino-N-[(3R)-7-[(3S,4S)-3-amino-4-(ethoxymethyl)pyrrolidin-1-yl]-3,4-dihydro-2H-1-benzopyran-3-yl]-6-methylthieno[2,3-b]pyridine-2-carboxamide] | 1 to 50 nM
CN[C@@H]1CN(c2ccc3c(n2)CC[C@H](NC(=O)c2sc4nc(C)ccc4c2N)C3)C[C@]1(C)O [Example 332, 3-amino-N-[(6S)-2-[(3S,4R)-3-hydroxy-3-methyl-4-(methylamino)pyrrolidin-1-yl]-5,6,7,8-tetrahydroquinolin-6-yl]-6-methylthieno[2,3-b]pyridine-2-carboxamide] | 50 to 200 nM
CO[C@]1(C)CN(c2ccc3c(n2)OC[C@H](NC(=O)c2sc4nc(C)ccc4c2N)C3)C[C@H]1N [Example 326, 3-amino-N-[(3R)-7-[(3R,4R)-4-amino-3-methoxy-3-methylpyrrolidin-1-yl]-2H,3H,4H-pyrano[2,3-b]pyridin-3-yl]-6-methylthieno[2,3-b]pyridine-2-carboxamide] | 50 to 200 nM
COC[C@@H]1CN(c2ccc3c(c2)OC[C@H](NC(=O)c2sc4nc(C)cc(C)c4c2N)C3)C[C@@H]1N [Example 275, 3-amino-N-[(3R)-7-[(3R,4R)-3-amino-4-(methoxymethyl)pyrrolidin-1-yl]-3,4-dihydro-2H-1-benzopyran-3-yl]-4,6-dimethylthieno[2,3-b]pyridine-2-carboxamide] | 1 to 50 nM
COC[C@@H]1C[C@H](N)CN1c1ccc2c(c1)OC[C@H](NC(=O)c1sc3nc(C)ccc3c1N)C2 [Example 263, 3-amino-N-[(3R)-7-[(2S,4S)-4-amino-2-(methoxymethyl)pyrrolidin-1-yl]-3,4-dihydro-2H-1-benzopyran-3-yl]-6-methylthieno[2,3-b]pyridine-2-carboxamide] | 1 to 50 nM
Cc1cnc2c(N)c(C(=O)N[C@H]3CCc4cc(N5C[C@H](OC(C)C)[C@@H](N)C5)ccc4C3)sc2n1 [Example 319, 7-amino-N-[(2S)-6-[(3S,4S)-3-amino-4-(propan-2-yloxy)pyrrolidin-1-yl]-1,2,3,4-tetrahydronaphthalen-2-yl]-3-methylthieno[2,3-b]pyrazine-6-carboxamide] | 50 to 200 nM
COC[C@@H]1CN(c2nc3c(cc2F)C[C@H](NC(=O)c2sc4nc(C)ccc4c2N)CC3)C[C@@H]1N (single isomer, unassigned) [Example 302] | 50 to 200 nM
CCO[C@H]1CN(c2ccc3c(c2)CC[C@H](NC(=O)c2sc4nc(C)ccc4c2N)C3)C[C@H]1N [Example 268, 3-amino-N-[(2S)-6-[(3R,4S)-3-amino-4-ethoxypyrrolidin-1-yl]-1,2,3,4-tetrahydronaphthalen-2-yl]-6-methylthieno[2,3-b]pyridine-2-carboxamide] | 50 to 200 nM
COC[C@H]1C[C@@H](N)CN1c1ccc2c(c1)OC[C@H](NC(=O)c1sc3nc(C)ccc3c1N)C2 [Example 262, 3-amino-N-[(3R)-7-[(2R,4R)-4-amino-2-(methoxymethyl)pyrrolidin-1-yl]-3,4-dihydro-2H-1-benzopyran-3-yl]-6-methylthieno[2,3-b]pyridine-2-carboxamide] | 1 to 50 nM
COC[C@H]1CN(c2ccc3c(c2)OC[C@H](NC(=O)c2sc4nc(C)cc(C)c4c2N)C3)C[C@H]1N [Example 276, 3-amino-N-[(3R)-7-[(3S,4S)-3-amino-4-(methoxymethyl)pyrrolidin-1-yl]-3,4-dihydro-2H-1-benzopyran-3-yl]-4,6-dimethylthieno[2,3-b]pyridine-2-carboxamide] | 1 to 50 nM
CO[C@H]1CN(c2ccc3c(n2)CC[C@H](NC(=O)c2sc4nc(C)ccc4c2N)C3)C[C@H]1N [Example 270, 3-amino-N-[(6S)-2-[(3R,4S)-3-amino-4-methoxypyrrolidin-1-yl]-5,6,7,8-tetrahydroquinolin-6-yl]-6-methylthieno[2,3-b]pyridine-2-carboxamide] | 50 to 200 nM
CO[C@@]1(C)CN(c2ccc3c(c2)OC[C@H](NC(=O)c2sc4nc(C)ccc4c2N)C3)C[C@@H]1N [Example 281, 3-amino-N-[(3R)-7-[(3S,4S)-4-amino-3-methoxy-3-methylpyrrolidin-1-yl]-3,4-dihydro-2H-1-benzopyran-3-yl]-6-methylthieno[2,3-b]pyridine-2-carboxamide] | 1 to 50 nM
CN[C@H]1CN(c2ccc3c(n2)CC[C@H](NC(=O)c2sc4nc(C)ccc4c2N)C3)C[C@@]1(C)O [Example 331, 3-amino-N-[(6S)-2-[(3R,4S)-3-hydroxy-3-methyl-4-(methylamino)pyrrolidin-1-yl]-5,6,7,8-tetrahydroquinolin-6-yl]-6-methylthieno[2,3-b]pyridine-2-carboxamide] | 50 to 200 nM
Cc1ccc2c(N)c(C(=O)N[C@H]3COc4cc(N5C[C@@H]6CCN[C@@H]6C5)ccc4C3)sc2n1 [Example 304, N-[(3R)-7-[(3aS,6aS)-octahydropyrrolo[3,4-b]pyrrol-5-yl]-3,4-dihydro-2H-1-benzopyran-3-yl]-3-amino-6-methylthieno[2,3-b]pyridine-2-carboxamide] | 1 to 50 nM
Cc1ccc2c(N)c(C(=O)N[C@H]3COc4cc(N5C[C@H](N)[C@]6(CCCO6)C5)ccc4C3)sc2n1 [Example 307, 3-amino-N-[(3R)-7-[(5S,9S)-9-amino-1-oxa-7-azaspiro[4.4]nonan-7-yl]-3,4-dihydro-2H-1-benzopyran-3-yl]-6-methylthieno[2,3-b]pyridine-2-carboxamide] | 1 to 50 nM
CO[C@H]1[C@H](N)CN(c2ccc3c(c2)OC[C@H](NC(=O)c2sc4nc(C)ccc4c2N)C3)[C@H]1C [Example 334, 3-amino-N-[(3R)-7-[(2S,3S,4R)-4-amino-3-methoxy-2-methylpyrrolidin-1-yl]-3,4-dihydro-2H-1-benzopyran-3-yl]-6-methylthieno[2,3-b]pyridine-2-carboxamide] | 1 to 50 nM
Cc1ccc2c(N)c(C(=O)N[C@H]3COc4cc(N5C[C@H](C(F)F)[C@@H](N)C5)ccc4C3)sc2n1 [Example 294, 3-amino-N-[(3R)-7-[(3R,4S)-3-amino-4-(difluoromethyl)pyrrolidin-1-yl]-3,4-dihydro-2H-1-benzopyran-3-yl]-6-methylthieno[2,3-b]pyridine-2-carboxamide] | 1 to 50 nM
CO[C@]1(C)CN(c2ccc3c(c2)OC[C@H](NC(=O)c2sc4nc(C)ccc4c2N)C3)C[C@H]1N [Example 282, 3-amino-N-[(3R)-7-[(3R,4R)-4-amino-3-methoxy-3-methylpyrrolidin-1-yl]-3,4-dihydro-2H-1-benzopyran-3-yl]-6-methylthieno[2,3-b]pyridine-2-carboxamide] | 1 to 50 nM
